Converted amounts (≈) assume the structure as drawn.
Test system: G(−) bacterial strains
Assay: Dilution antimicrobial susceptibility tests (MIC, NCCLS agar dilution / broth dilution)
Type: cell-based, Gram-negative organisms
Settings: unit assumed
Procedure: The MIC (minimum inhibitory concentration) was determined by the NCCLS (National Committee for Clinical Laboratory Standards) methods 2000. Methods for dilution antimicrobial susceptibility testing for bacteria that growth aerobically (M7-A5, vol. 20, No. 2). The agar dilution method for determining antimicrobial susceptibility was carried out using Mueller-Hinton agar. A final inoculum of 10^4 CFU/spot was applied with an inoculation device. Broth dilution tests were performed with 5×10^5 CFU/well in 96 well plates. The susceptibilities of streptococci were determined by Mueller-Hinton agar supplemented with 5% sheep blood. All assays were run with the indicated control strains, available from the ATCC (American Type Culture Collection, Rockville, Md.).
Abbreviations used in Table 1 are defined as follows: Cf-R: Ceftazidime Resistance, Ci-R: Ciprofloxacin Resistance, Gen-R: Gentamycin Resistance, Imp-R: Imipenem Resistance, Mp-R: Meropenem Resistance, Ofx-R: Ofloxacin Resistance, B+: β-lactamase Production, AmpC: AmpC-lactamase Hyper production, CBPase: Carbapenemase Production.

[1] = strain #1 Acinetobacter calcoaceticus
[2] = strain #2 Acinetobacter baumannii, Cf-R, Ci-R
[3] = strain #3 Acinetobacter baumannii, Cf-R, Ci-R, Mp-I
[4] = strain #4 Acinetobacter baumannii, Cf-R, Imp-I, CBPase
[5] = strain #7 Enterobacter aerogenes
[6] = strain #8 Enterobacter cloacae, Cf-R, B+
[7] = strain #9 Enterobacter cloacae, Cf-R
[8] = strain #10 Escherichia coli, Ci-R
[9] = strain #11 Escherichia coli, Ci-R, AmpC
[10] = strain #15 Klebsiella pneumoniae
[11] = strain #16 Moraxella catarrhalis
[12] = strain #21 Providencia rettgeri
[13] = strain #22 Salmonella typhimurium
[14] = strain #25 Shigella dysenteriae
[15] = strain #28 Stenotrophomonas maltophilia
[16] = strain #29 Pseudomonas aeruginosa
[17] = strain #30 Pseudomonas aeruginosa
[18] = strain #31 Pseudomonas aeruginosa, Ofx-R
[19] = strain #32 Pseudomonas aeruginosa, Cf-R
[20] = strain #33 Pseudomonas aeruginosa, Ci-R
[21] = strain #34 Pseudomonas aeruginosa, Gen-R
[22] = strain #35 Pseudomonas aeruginosa, Ip-R
[23] = strain #36 Pseudomonas aeruginosa, Cf-R, Ci-R, Mp-R

| SMILES | MIC [1] [µg/mL] | MIC [2] [µg/mL] | MIC [3] [µg/mL] | MIC [4] [µg/mL] | MIC (strain #5 Citrobacter diversus) [µg/mL] | MIC (strain #6 Citrobacter freundii) [µg/mL] | MIC [5] [µg/mL] | MIC [6] [µg/mL] | MIC [7] [µg/mL] | MIC [8] [µg/mL] | MIC [9] [µg/mL] | MIC (strain #12 Escherichia coli) [µg/mL] | MIC (strain #13 Escherichia coli) [µg/mL] | MIC (strain #14 Klebsiella oxytoca) [µg/mL] | MIC [10] [µg/mL] | MIC [11] [µg/mL] | MIC (strain #17 Morganella Morganii) [µg/mL] | MIC (strain #18 Morganella Morganii) [µg/mL] | MIC (strain #19 Proteus vulgaris) [µg/mL] | MIC (strain #20 Proteus mirabilis) [µg/mL] | other results |
| --- | --- | --- | --- | --- | --- | --- | --- | --- | --- | --- | --- | --- | --- | --- | --- | --- | --- | --- | --- | --- | --- |
| C[C@@H](O)C1C(=O)N2C(C(=O)O)=C(CN3CC[C@@H](N)C3)[C@H](C)C12 (stereo partly shown) [Compound 151] | 0.25 (≈ 0.808 µM) | 0.5 (≈ 1.62 µM) | 2 (≈ 6.46 µM) | 1 (≈ 3.23 µM) | 0.25 (≈ 0.808 µM) | 0.5 (≈ 1.62 µM) | 2 (≈ 6.46 µM) | 0.25 (≈ 0.808 µM) | 0.5 (≈ 1.62 µM) | 0.25 (≈ 0.808 µM) | 0.25 (≈ 0.808 µM) | 0.25 (≈ 0.808 µM) | 0.5 (≈ 1.62 µM) | 0.5 (≈ 1.62 µM) | 0.5 (≈ 1.62 µM) | ≤ 0.008 | 4 (≈ 12.9 µM) | 4 (≈ 12.9 µM) | 1 (≈ 3.23 µM) | 0.5 (≈ 1.62 µM) | MIC [12]: 2 µg/mL (≈ 6.46 µM); MIC [13]: 0.5 µg/mL (≈ 1.62 µM); MIC (strain #23 Serratia marcescens): 1 µg/mL (≈ 3.23 µM); MIC (strain #24 Serratia marcescens): 1 µg/mL (≈ 3.23 µM); MIC [14]: 0.5 µg/mL (≈ 1.62 µM); MIC (strain #26 Shigella sonnei): 0.5 µg/mL (≈ 1.62 µM); MIC (strain #27 Shigella flexneri): 0.25 µg/mL (≈ 0.808 µM); MIC [15]: 0.25 µg/mL (≈ 0.808 µM) |
| C[C@@H](O)C1C(=O)N2C(C(=O)[O-])=C(C[N+]3(C)CC[C@H](NC(=N)N)C3)[C@H](C)C12 (stereo partly shown) [Compound 67] | 2 (≈ 5.47 µM) | 8 (≈ 21.9 µM) | 8 (≈ 21.9 µM) | 4 (≈ 10.9 µM) | 0.13 (≈ 0.356 µM) | 0.25 (≈ 0.684 µM) | 4 (≈ 10.9 µM) | 0.13 (≈ 0.356 µM) | 0.25 (≈ 0.684 µM) | 0.13 (≈ 0.356 µM) | 0.13 (≈ 0.356 µM) | 0.13 (≈ 0.356 µM) | 0.25 (≈ 0.684 µM) | 0.25 (≈ 0.684 µM) | 4 (≈ 10.9 µM) | 0.016 (≈ 0.0438 µM) | 16 (≈ 43.8 µM) | 16 (≈ 43.8 µM) | 16 (≈ 43.8 µM) | 0.25 (≈ 0.684 µM) | MIC [12]: 1 µg/mL (≈ 2.74 µM); MIC [13]: 0.25 µg/mL (≈ 0.684 µM); MIC (strain #23 Serratia marcescens): 0.5 µg/mL (≈ 1.37 µM); MIC (strain #24 Serratia marcescens): 0.5 µg/mL (≈ 1.37 µM); MIC [14]: 0.25 µg/mL (≈ 0.684 µM); MIC (strain #26 Shigella sonnei): 0.25 µg/mL (≈ 0.684 µM); MIC (strain #27 Shigella flexneri): 0.13 µg/mL (≈ 0.356 µM); MIC [15]: 2 µg/mL (≈ 5.47 µM); MIC [16]: 1 µg/mL (≈ 2.74 µM); MIC [17]: 2 µg/mL (≈ 5.47 µM); MIC [18]: 2 µg/mL (≈ 5.47 µM); MIC [19]: 2 µg/mL (≈ 5.47 µM); MIC [20]: 2 µg/mL (≈ 5.47 µM); MIC [21]: 2 µg/mL (≈ 5.47 µM); MIC [22]: 4 µg/mL (≈ 10.9 µM); MIC [23]: 16 µg/mL (≈ 43.8 µM) |
| CN[C@H]1CCN(CC2=C(C(=O)O)N3C(=O)C([C@@H](C)O)C3[C@H]2C)C1 (stereo partly shown) [Compound 43] | 0.5 (≈ 1.55 µM) | 1 (≈ 3.09 µM) | 4 (≈ 12.4 µM) | 4 (≈ 12.4 µM) | 0.25 (≈ 0.773 µM) | 0.25 (≈ 0.773 µM) | 1 (≈ 3.09 µM) | 0.25 (≈ 0.773 µM) | 0.5 (≈ 1.55 µM) | 0.25 (≈ 0.773 µM) | 0.25 (≈ 0.773 µM) | 0.25 (≈ 0.773 µM) | 0.25 (≈ 0.773 µM) | 0.5 (≈ 1.55 µM) | 0.5 (≈ 1.55 µM) | ≤ 0.008 | 2 (≈ 6.18 µM) | 2 (≈ 6.18 µM) | 1 (≈ 3.09 µM) | 0.25 (≈ 0.773 µM) | MIC [12]: 1 µg/mL (≈ 3.09 µM); MIC [13]: 0.5 µg/mL (≈ 1.55 µM); MIC (strain #23 Serratia marcescens): 1 µg/mL (≈ 3.09 µM); MIC (strain #24 Serratia marcescens): 1 µg/mL (≈ 3.09 µM); MIC [14]: 0.5 µg/mL (≈ 1.55 µM); MIC (strain #26 Shigella sonnei): 0.25 µg/mL (≈ 0.773 µM); MIC (strain #27 Shigella flexneri): 0.25 µg/mL (≈ 0.773 µM); MIC [15]: 0.5 µg/mL (≈ 1.55 µM); MIC [16]: 4 µg/mL (≈ 12.4 µM); MIC [17]: 2 µg/mL (≈ 6.18 µM); MIC [18]: 1 µg/mL (≈ 3.09 µM); MIC [19]: 4 µg/mL (≈ 12.4 µM); MIC [20]: 4 µg/mL (≈ 12.4 µM); MIC [21]: 4 µg/mL (≈ 12.4 µM); MIC [22]: 8 µg/mL (≈ 24.7 µM); MIC [23]: 16 µg/mL (≈ 49.5 µM) |

Source: patent publication US9937151B2, “Carbapenem antibacterials with gram-negative activity” (priority 2010, dated 2018)
